According to ChEMBL document CHEMBL3390844, “Development of substituted 7-phenyl-4-aminobenzothieno[3,2-d] pyrimidines as potent LIMK1 inhibitors” (Medchemcomm, 2011):
≈ marks a conversion by molar mass, not a printed value.

Assays:
LIM domain kinase 1 [1] = biological target: T1, LIM domain kinase 1 (Homo sapiens, UniProt P53667); experiment: Inhibition of LIMK1 (unknown origin) assessed as ADP formation using cofilin-2 protein as substrate measured after 60 mins incubation with enzyme by Transcreener assay
T1 sequence (P53667 whole entry, the tested form may be a part): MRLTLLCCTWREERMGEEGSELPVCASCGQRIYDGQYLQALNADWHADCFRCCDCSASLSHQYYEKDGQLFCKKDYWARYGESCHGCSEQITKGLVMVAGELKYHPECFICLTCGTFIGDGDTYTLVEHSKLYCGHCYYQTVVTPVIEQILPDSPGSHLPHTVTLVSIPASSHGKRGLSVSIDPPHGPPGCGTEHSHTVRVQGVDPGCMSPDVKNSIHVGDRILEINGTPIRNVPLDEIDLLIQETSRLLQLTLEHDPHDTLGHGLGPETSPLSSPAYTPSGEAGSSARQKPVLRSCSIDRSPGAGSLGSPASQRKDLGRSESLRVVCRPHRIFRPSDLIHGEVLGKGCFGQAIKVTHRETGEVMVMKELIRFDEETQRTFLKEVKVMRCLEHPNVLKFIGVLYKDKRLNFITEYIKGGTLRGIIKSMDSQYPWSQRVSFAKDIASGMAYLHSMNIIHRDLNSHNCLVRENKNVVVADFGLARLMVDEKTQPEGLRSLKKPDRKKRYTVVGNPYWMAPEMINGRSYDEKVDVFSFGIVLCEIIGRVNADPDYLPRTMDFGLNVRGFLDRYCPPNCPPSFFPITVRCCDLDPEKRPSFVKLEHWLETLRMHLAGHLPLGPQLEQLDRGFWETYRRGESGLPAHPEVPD

[2] = In vitro intrinsic clearance in human liver microsomes at 1 uM by LC-MS analysis; format: ADME; conditions: read-out: CLH
[3] = Solubility of the compound in 0.01 M HCl at pH 2 by nephelometry; format: physicochemical
[4] = Solubility of the compound in phosphate buffer at pH 6.5 by nephelometry; format: physicochemical
[5] = In vitro intrinsic clearance in mouse liver microsomes at 1 uM by LC-MS analysis; format: ADME; conditions: read-out: CLH
[6] = Partition coefficient, log D of the compound at pH 7.4 by HPLC analysis; format: physicochemical; conditions: octanol/water
LIM domain kinase 2 = LIM domain kinase 2 (Homo sapiens, UniProt P53671); experiment: Inhibition of LIMK2 (unknown origin)
Chain of LIM domain kinase 2 (P53671 whole entry, the tested form may be a part): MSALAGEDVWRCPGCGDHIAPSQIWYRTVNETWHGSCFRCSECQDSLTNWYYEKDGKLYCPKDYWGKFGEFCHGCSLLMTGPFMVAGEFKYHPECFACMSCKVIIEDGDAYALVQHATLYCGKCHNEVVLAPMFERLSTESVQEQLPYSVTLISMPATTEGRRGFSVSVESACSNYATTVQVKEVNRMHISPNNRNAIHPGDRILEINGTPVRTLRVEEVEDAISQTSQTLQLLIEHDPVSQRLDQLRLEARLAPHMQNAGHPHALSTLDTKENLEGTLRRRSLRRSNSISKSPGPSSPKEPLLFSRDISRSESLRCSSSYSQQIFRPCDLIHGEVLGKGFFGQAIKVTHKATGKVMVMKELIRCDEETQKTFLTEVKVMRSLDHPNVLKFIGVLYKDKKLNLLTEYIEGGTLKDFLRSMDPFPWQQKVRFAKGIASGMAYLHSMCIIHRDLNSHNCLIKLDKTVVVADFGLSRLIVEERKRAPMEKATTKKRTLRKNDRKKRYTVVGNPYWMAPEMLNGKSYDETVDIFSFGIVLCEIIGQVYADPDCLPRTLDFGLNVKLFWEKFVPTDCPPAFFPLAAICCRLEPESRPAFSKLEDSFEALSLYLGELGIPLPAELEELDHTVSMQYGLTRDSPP

LIM domain kinase 1 [7] = biological target: T1, LIM domain kinase 1; experiment: Inhibition of LIMK1 (unknown origin) assessed as remaining ATP level using cofilin-2 protein as substrate measured after 60 mins incubation with enzyme by KinaseGlo assay
LIM domain kinase 1 [8] = biological target: T1, LIM domain kinase 1; experiment: Inhibition of LIMK1-catalyzed cofilin phosphorylation in human ZR-75-1 cells; format: cell-based
[9] = Plasma protein binding in human by LC-MS analysis; format: ADME, cell-free; conditions: read-out: PPB (converted)

| SMILES | IC50 (LIM domain kinase 1 [1]) [nM] | IC50 (LIM domain kinase 1 [7]) [nM] | also measured |
| --- | --- | --- | --- |
| Nc1ncnc2c1sc1cc(-c3cccc(C(=O)NCCO)c3)ccc12 | 228 | – | – |
| CCNC(=O)Nc1ncc(-c2cc(-c3c(C)cc(OC)cc3C)nc(-c3cnccn3)n2)s1 | 54 | – | microsomal CLint at 1 µM [2]: < 5 µL/min/mg; solubility kinetic [3]: 1.6 µg/mL (≈ 3.47 µM); solubility kinetic [4]: 1.6 µg/mL (≈ 3.47 µM); microsomal CLint at 1 µM [5]: 10 µL/min/mg; logD [6]: 3; IC50 (LIM domain kinase 2): 696 nM |
| Cn1c2cc(-c3ccc(O)cc3)ccc2c2ncnc(N)c21 | 571 | – | – |
| CN1CCN(CCNC(=O)Nc2cccc(-c3ccc4c(c3)sc3c(N)ncnc34)c2)CC1 | 223 | – | – |
| Cn1c2cc(-c3ccc(NC=O)cc3)ccc2c2ncnc(N)c21 | 498 | – | – |
| Nc1ncnc2c1sc1cc(-c3cccc(C(=O)N4CCOCC4)c3)ccc12 | > 1000 | – | – |
| Nc1ncnc2c1sc1cc(-c3ccc(NC=O)cc3)ccc12 | – | 44 | – |
| Nc1ccc(-c2ccc3c(c2)sc2c(N)ncnc23)cc1 | – | 159 | – |
| CC(=O)Nc1ccc(-c2ccc3c(c2)sc2c(N)ncnc23)cc1 | – | 181 | – |
| Cn1c2cc(-c3ccccc3)ccc2c2ncnc(N)c21 | – | – | microsomal CLint at 1 µM [2]: 70 µL/min/mg; solubility kinetic [3]: 12.5 µg/mL (≈ 45.6 µM); solubility kinetic [4]: 3.1 µg/mL (≈ 11.3 µM); microsomal CLint at 1 µM [5]: 572 µL/min/mg; logD [6]: 3.4 |
| CC(C)NC(=O)Nc1cccc(-c2ccc3c(c2)sc2c(N)ncnc23)c1 | 78 | – | – |
| Nc1ncnc2c1sc1cc(-c3ccncc3)ccc12 | – | 732 | – |
| Nc1ncnc2c1sc1cc(-c3ccccc3O)ccc12 | – | 260 | – |
| C[C@@H](NC(=O)c1cccc(-c2ccc3c(c2)sc2c(N)ncnc23)c1)C(N)=O | 294 | – | – |
| NC(=O)c1ccc(-c2ccc3c(c2)sc2c(N)ncnc23)cc1 | – | 156 | – |
| CC(=O)Nc1cccc(-c2ccc3c(c2)sc2c(N)ncnc23)c1 | – | 395 | – |

| SMILES | IC50 (LIM domain kinase 1 [1]) [nM] | IC50 (LIM domain kinase 1 [7]) [nM] | also measured |
| --- | --- | --- | --- |
| Nc1ncnc2c1sc1cc(-c3ccc(O)cc3)ccc12 | – | 267 | – |
| CC(=O)c1ccc(-c2ccc3c(c2)sc2c(N)ncnc23)cc1 | – | 172 | – |
| Nc1ncnc2c1sc1cc(-c3ccc(CO)cc3)ccc12 | – | 163 | – |
| Cn1c2cc(-c3cccc(C(N)=O)c3)ccc2c2ncnc(N)c21 | 379 | – | – |
| CCNC(=O)Nc1cccc(-c2ccc3c(c2)sc2c(N)ncnc23)c1 | 87 | – | microsomal CLint at 1 µM [2]: 24 µL/min/mg; solubility kinetic [3]: 12.5 µg/mL (≈ 34.4 µM); solubility kinetic [4]: 1.6 µg/mL (≈ 4.4 µM); IC50 (LIM domain kinase 1 [8]): > 30000 nM; microsomal CLint at 1 µM [5]: 68 µL/min/mg; logD [6]: 2.4; IC50 (LIM domain kinase 2): 164 nM |
| Nc1ncnc2c1sc1cc(-c3ccccc3Cl)ccc12 | – | > 1000 | – |
| CC(C)C(=O)Nc1ncc(-c2cc(C(F)F)nn2-c2c(Cl)cccc2Cl)s1 | – | – | fraction unbound [9]: 0.029; logD [6]: 3.8 |
| Nc1ncnc2c1sc1cc(-c3ccccc3)ccc12 | – | – | microsomal CLint at 1 µM [2]: 114 µL/min/mg; solubility kinetic [3]: 6.3 µg/mL (≈ 22.7 µM); solubility kinetic [4]: < 1.6 µg/mL; microsomal CLint at 1 µM [5]: 839 µL/min/mg; logD [6]: 3.65 |
| Nc1ccccc1-c1ccc2c(c1)sc1c(N)ncnc12 | – | 310 | – |
| CS(=O)(=O)Nc1ccc(-c2ccc3c(c2)sc2c(N)ncnc23)cc1 | – | 243 | – |
| CC(C)CNC(=O)Nc1cccc(-c2ccc3c(c2)sc2c(N)ncnc23)c1 | 237 | – | – |
| COc1ccccc1-c1ccc2c(c1)sc1c(N)ncnc12 | – | 220 | – |
| CS(=O)(=O)c1ccc(-c2ccc3c(c2)sc2c(N)ncnc23)cc1 | – | 376 | – |
| COc1ccc(-c2ccc3c(c2)sc2c(N)ncnc23)cc1 | – | 204 | – |
| N#Cc1ccc(-c2ccc3c(c2)sc2c(N)ncnc23)cc1 | – | 828 | – |
| CS(=O)(=O)Nc1ccccc1-c1ccc2c(c1)sc1c(N)ncnc12 | – | 998 | – |

Second part, led by results:

| IC50 (LIM domain kinase 1 [1]) [nM] | IC50 (LIM domain kinase 1 [7]) [nM] | SMILES | also measured |
| --- | --- | --- | --- |
| – | 230 | Nc1ncnc2c1sc1cc(-c3cccc(O)c3)ccc12 | – |
| 145 | – | NC(=O)Nc1cccc(-c2ccc3c(c2)sc2c(N)ncnc23)c1 | – |
| 120 | 120 | NC(=O)c1cccc(-c2ccc3c(c2)sc2c(N)ncnc23)c1 | microsomal CLint at 1 µM [2]: < 5 µL/min/mg; solubility kinetic [3]: 25 µg/mL (≈ 78 µM); solubility kinetic [4]: 3.1 µg/mL (≈ 9.68 µM); IC50 (LIM domain kinase 1 [8]): > 30000 nM; microsomal CLint at 1 µM [5]: 26 µL/min/mg; fraction unbound [9]: 0.037; logD [6]: 1.9; IC50 (LIM domain kinase 2): 273 nM |
| – | 361 | CS(=O)(=O)c1cccc(-c2ccc3c(c2)sc2c(N)ncnc23)c1 | – |
| – | 127 | Nc1ncnc2c1sc1cc(-c3ccc(-c4nn[nH]n4)cc3)ccc12 | – |
| – | 50 | Nc1ncnc2c1sc1cc(-c3cccc(-c4nn[nH]n4)c3)ccc12 | microsomal CLint at 1 µM [2]: < 5 µL/min/mg; solubility kinetic [3]: 6.3 µg/mL (≈ 18.2 µM); solubility kinetic [4]: 6.3 µg/mL (≈ 18.2 µM); IC50 (LIM domain kinase 1 [8]): > 30000 nM; microsomal CLint at 1 µM [5]: < 6 µL/min/mg; fraction unbound [9]: 0.012; logD [6]: 2; IC50 (LIM domain kinase 2): 90 nM |
| – | 129 | Nc1ncnc2c1sc1cc(-c3cccc(CO)c3)ccc12 | – |
| – | 196 | Nc1ncnc2c1sc1cc(-c3cccc(C(=O)O)c3)ccc12 | – |
| – | 149 | COc1cccc(-c2ccc3c(c2)sc2c(N)ncnc23)c1 | – |
| – | 231 | Nc1cccc(-c2ccc3c(c2)sc2c(N)ncnc23)c1 | – |
| – | 795 | Nc1ncnc2c1sc1cc(-c3cccnc3)ccc12 | – |
| – | 199 | Nc1ncnc2c1sc1cc(-c3cccc(Cl)c3)ccc12 | – |
| 55 | 55 | Nc1ncnc2c1sc1cc(-c3cccc(NC=O)c3)ccc12 | – |
